From article PMC5352362, “Molecular and functional evaluation of a novel HIF inhibitor, benzopyranyl 1,2,3-triazole compound” (Oncotarget, 2016) come the findings set out here.

In experiment [1] the test system is HIF-1α target genes (VEGF, ALDOC, CA9, GLUT1, CXCR4). Nature of the experiment: Semiquantitative RT-PCR of HIF-1α target genes in A549 cells. Format: cell-based, human. To be noted: 1–100 nM, 16 h, hypoxia. An excerpt: As HIF-1α regulates transcription of its target genes, which are involved in angiogenesis, glucose metabolism, and metastasis in tumor progression, we determined the effects of Compound 12 on HIF-1 target gene expression at the mRNA level by semiquantitative RT-PCR. […] Thus, we checked secreted VEGF protein levels in culture media via ELISA.
Figure 5 Compound 12 suppressed HIF-1α target gene expression, and confirmation of in vitro results via determination of effects on angiogenesis in vivo (A) A549 cells were treated with Compound 12 (at concentrations of 0 nM, 1 nM, 10 nM, and 100 nM) for 16 h. The mRNA levels of HIF-1α target genes were determined by semiquantitative RT-PCR. β-actin was used as an internal control. D. DMSO vehicle control. N, normoxia; H, hypoxia. […] Media supernatant was collected, and secreted VEGF was determined by ELISA after removal of cellular debris. […] Cells that migrated through the membrane (8 μm pore size) were stained with hematoxylin and eosin, pictured as shown in upper panel, and counted (graph). *P < 0.05, **P < 0.01 versus VEGF-treated control. […] (F) Compound 12 (0.1 μg and 1 μg dosages) and retinoic acid (RA, positive control) were applied to the ED 4.5 CAM for two days, neovessel formation from the large vessels was observed, and percentages of positive angiogenic eggs (from total eggs tested) were calculated. […]

A further experiment addresses HIF-1α (Homo sapiens, UniProt Q16665). Nature of the experiment: Western blot of HIF-1α protein in hypoxic A549 cells. It is filed as cell-based. To be noted: hypoxia 16 h.
A further experiment has as its system HUVECs. Nature of the experiment: Matrigel tube formation assay, VEGF-induced. It is filed as cell-based, human. The conditions noted are these: VEGF 20 ng/mL, 24 h.

Chain of HIF-1α (Q16665 whole entry): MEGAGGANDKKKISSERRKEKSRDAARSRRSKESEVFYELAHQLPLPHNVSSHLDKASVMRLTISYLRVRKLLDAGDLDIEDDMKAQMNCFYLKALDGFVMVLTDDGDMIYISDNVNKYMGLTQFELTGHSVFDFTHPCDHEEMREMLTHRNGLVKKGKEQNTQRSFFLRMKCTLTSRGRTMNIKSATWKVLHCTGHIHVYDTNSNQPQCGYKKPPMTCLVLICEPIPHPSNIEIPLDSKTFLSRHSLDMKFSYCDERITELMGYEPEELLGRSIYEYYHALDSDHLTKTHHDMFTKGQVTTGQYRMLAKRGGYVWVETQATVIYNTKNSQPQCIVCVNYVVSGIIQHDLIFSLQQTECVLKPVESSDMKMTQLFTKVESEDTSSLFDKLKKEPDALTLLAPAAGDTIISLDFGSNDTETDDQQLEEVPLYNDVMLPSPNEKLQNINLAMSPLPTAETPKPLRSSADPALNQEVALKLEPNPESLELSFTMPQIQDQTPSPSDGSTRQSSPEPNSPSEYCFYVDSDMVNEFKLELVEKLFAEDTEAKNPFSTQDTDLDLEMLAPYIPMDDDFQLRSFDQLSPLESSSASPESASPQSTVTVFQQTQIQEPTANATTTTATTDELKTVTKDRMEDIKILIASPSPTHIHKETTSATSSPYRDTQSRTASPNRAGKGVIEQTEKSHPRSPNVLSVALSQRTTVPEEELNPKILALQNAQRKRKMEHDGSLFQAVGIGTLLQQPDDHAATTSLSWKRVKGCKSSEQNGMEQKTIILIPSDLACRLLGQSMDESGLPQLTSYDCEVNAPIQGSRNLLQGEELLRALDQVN

Regarding `COc1ccc(-c2cn(CC3(C)C=Cc4cc([N+](=O)[O-])ccc4O3)nn2)cc1` (centres unmarked) [Compound 12, 4-(4-methoxyphenyl)-1-((2-methyl-6-nitro-2H-chromen-2-yl)methyl)-1H-1,2,3-triazole], the “mRNA levels of VEGF, ALDOC, CA9, GLUT1 and CXCR4” value in experiment [1] is reported as “suppressed the mRNA levels”. For the same compound, the inhibition at 0.001 µM on HIF-1α (1 nM, read-out: downregulation of HIF-1α protein expression) was around 50%. At HIF-1α (1 μM), the “inhibitory effect on HIF-1α accumulation (western blot)” value is “most potent inhibitory effect”. In addition, the inhibition at 1 µM on HIF-1α (1 μM, compared to hypoxic control, read-out: reduction of HIF-1α protein levels) was 80%. In addition, the VEGF-induced tube formation entry in the experiment with HUVECs is on record as “significantly inhibited”.
